Experimental data as given in patent US20010039258A1, “Active agent transport systems” (Emisphere Technologies, Inc., priority 1990, published 2001).
pKd: −log10 of the molar value. Like-named read-outs stand apart in the source and are kept apart here.

Key:
[1] = DSC of heparin, effect of pH; assay type: physicochemical
Experimental: All thermograms were performed on a Microcal MC-2 scanning calorimeter equipped with the DA2 data acquisition system operated in the upscale mode at 1° C./min (up to 90° C.), and data points were collected at 20 second intervals. All scans were initiated at least 20 degrees below the observed transitions for the active agent. All thermograms were corrected for baseline subtraction and normalized for the concentration of macromolecule. According to the methods of the Johns Hopkins Biocalorimetry Center, See, for example, Ramsay et al. Biochemistry (1990) 29:8677-8693; Schon et al. Biochemistry (1989) 28:5019-5024 (1990) 29: 781-788. […]
(§1) Thermograms were corrected by subtraction of a heparin 0.05M NaCl-phosphate buffer blank, but an individual blank was not used for each NaCl concentration.

[2] = DSC of heparin, effect of ionic strength; assay type: physicochemical; settings: pH 7.0
Experimental: Scanning calorimetry was performed using 5 mg 0.83 mM porcine insulin (MW 6,000) per mL in 50 mM phosphate buffer, pH 7.5. All thermograms were performed on a Microcal MC-2 scanning calorimeter equipped with the DA2 data acquisition system operated in the upscale mode at 1° C./min (up to 90° C.), and data points were collected at 20 second intervals. All scans were initiated at least 20 degrees below the observed transitions for the active agent. All thermograms were corrected for baseline subtraction and normalized for the concentration of macromolecule. According to the methods of the Johns Hopkins Biocalorimetry Center, See, for example, Ramsay et al. Biochemistry (1990) 29:8677-8693; Schon et al. Biochemistry (1989) 28:5019-5024 (1990) 29: 781-788. […]
as §1

[3] = DSC of heparin, effect of guanidine hydrochloride; assay type: physicochemical
Experimental: Scanning calorimetry was performed using 5 mg 0.83 mM porcine insulin (MW 6,000) per mL in 50 mM phosphate buffer, pH 7.5. All thermograms were performed on a Microcal MC-2 scanning calorimeter equipped with the DA2 data acquisition system operated in the upscale mode at 1° C./min (up to 90° C.), and data points were collected at 20 second intervals. All scans were initiated at least 20 degrees below the observed transitions for the active agent. All thermograms were corrected for baseline subtraction and normalized for the concentration of macromolecule. According to the methods of the Johns Hopkins Biocalorimetry Center, See, for example, Ramsay et al. Biochemistry (1990) 29:8677-8693; Schon et al. Biochemistry (1989) 28:5019-5024 (1990) 29: 781-788.
DSC thermograms of heparin at pH 5.0 were conducted according to the method of Example 9 using pH, GuHCl, and ionic strength as perturbants.
as §1

[4] = target: T1, α-interferon (Homo sapiens, UniProt P01563); test: Isothermal titration calorimetry of perturbant complexing with α-interferon; assay type: binding; settings: 25° C.; for result of complexing with α-interferon at pH 3: 20 mM NaAc; for n (1), # of complexed perturbant molecules: curve fitting, multiple independent sites
T1 construct: purchased Schering Plough Corp
T1 sequence (P01563 24-188): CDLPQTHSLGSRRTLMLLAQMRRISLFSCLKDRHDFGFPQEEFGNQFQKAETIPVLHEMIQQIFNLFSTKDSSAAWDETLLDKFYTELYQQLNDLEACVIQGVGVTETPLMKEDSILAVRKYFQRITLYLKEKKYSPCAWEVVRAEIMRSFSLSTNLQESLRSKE
Experimental: Isothermal titration calorimetry of perturbant complexing with α-interferon was performed at 25° C. at two different pH's. The buffers used were 20 mM NaPhosphate for pH 7.2 and 20 mM NaAc for pH 3.0. α-interferon solution was dialyzed before the experiment to reach the appropriate pH. Dry perturbants were weighed and diluted in dialysate.
ITC was conducted on a MicroCal OMEGA titration calorimeter (MicroCal Inc.—Northampton, Mass.). Data points were collected every 2 seconds, without subsequent filtering. α-interferon solution placed in 1.3625 mL cell was titrated using a 250 μL syringe filled with concentrated perturbant solution. A certain amount of titrant was injected every 3-5 minutes for up to 55 injections.
A reference experiment to correct for the heat of mixing of two solutions, was performed identically except that the reaction cell was filled with buffer without active agent.
Analysis of the data was performed using the software developed at the Johns Hopkins University Biocalorimetry Center.
The titration at pH 7.2 included 53 injections of 2 μL of the perturbant of Example 30 (50 mg/mL=191.6 mM (MW 261)) and α-interferon (1.3 mg/mL=0.067 mM (MW 19400)).
The titration at pH 7.2 included two runs of […] each of 5 μL of perturbant (50 mg/mL=181 mM (FW 277)) and α-interferon (2.31 mg/mL=0.119 mM, (MW 19400)).
ITC was performed according to the method of Example 24 with 40 injections of 5 μL of the perturbant benzoyl para-amino phenylbutyric acid (7.5 mg/mL=24.59 mM, (FW 305)) and α-interferon (2.5 mg/mL=0.129 mM, (MW 19400)).

[5] = target: T1, α-interferon; test: Perturbant binding DSC with α-interferon; settings: α-interferon 0.64 mg/ml, pH 7.2
Experimental: Perturbant binding DSC was conducted using 20 mM NaPhosphate buffer at pH 7.2. Dry perturbant was weighed out to make perturbant stock solutions. α-interferon stock was diluted in the buffer. α-interferon solution was not dialyzed prior to experiments for the purpose of having the same active concentration for the whole set.
DSC thermograms were generated with α-interferon at a concentration of 0.64 mg/ml and a perturbant (phenylsulfonyl-para-aminobenzoic acid purified to >98% (as determined by reverse phase chromatography prior to generation of the spectra)) at perturbant concentrations of 5, 10, 25 and 100 mg/ml. DSC was conducted on a DASM-4 differential scanning calorimeter interfaced to an IBM PC for automatic collection of the data. The scanning rate was 60° C./h.
The method of Example 19 was followed substituting α-interferon without perturbant. Results are illustrated in Table 9 below and FIG. 10. […]

[6] = target: rhGH (Homo sapiens, UniProt P01241); test: Isothermal titration calorimetry of rhGH with perturbants; assay type: binding; settings: 30° C.
Sequence of rhGH (P01241 27-217): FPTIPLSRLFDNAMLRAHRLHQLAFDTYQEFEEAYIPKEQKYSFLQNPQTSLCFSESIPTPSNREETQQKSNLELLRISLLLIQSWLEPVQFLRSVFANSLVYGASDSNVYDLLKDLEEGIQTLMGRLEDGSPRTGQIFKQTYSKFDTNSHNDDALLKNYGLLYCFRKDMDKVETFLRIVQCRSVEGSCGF
Experimental: The ability of rhGh to complex with various perturbants was assessed by ITC using a Microcal Omega titrator, usually equilibrated at 30° C. The sample cell of the calorimeter was filled with degassed rhGH (usually at 0.25 mM) prepared in 50 mM phosphate buffer, pH 7.5 or 4.0. The perturbant (cyclohexanoyl chloride modified L-tyrosin (a), salicyloyl modified L-phenylalanine (b), or phenylsulfonyl-para-amino benzoic acid (c)) was then placed in the dropping syringe at 1 mM (for pH 7.5) and 2.5 mM, (for pH 4.0). Twenty to twenty-five 10 μl injections were made into rapidly mixing (400 rpm) solution with 2 minute intervals between injections.
Initial concentration of perturbant placed in the calorimeter sample cell assumed a formula weight of 200 for each perturbant. The pH of each solution was checked after dissolution, but no adjustments of the pH were required. All experiments were performed at 30° C. Initial concentration of rhGh placed in the dropping syringe assumed a molecular weight of 20,000 for rhGh. The pH of each solution was checked after dissolution, but no adjustment of the pH was required.
The heats of reaction were determined by integration of the observed peaks. To correct for heat of mixing and dilution, a control experiment was also performed under identical conditions where aliquots of the test perturbant or rhGh were added to buffer solution only.

## Heparin
[1]; pH 6.0
  ΔH: 232.1 kcal/mol
  ΔHvH: 13.8 kcal/mol
[1]; pH 6.0, 20 μg/ml in 50 mM phosphate
  Tm (Cp, max): 62.5 °C
[1]; pH 6.5, (a) domain
  Tm (Cp, max): 62.7 °C
  ΔH: 213.9 kcal/mol
[1]; pH 6.5, (b) domain
  Tm (Cp, max): 71.8 °C
  ΔH: 751.9 kcal/mol
[1]; pH 6.5, printed in line (b)
  ΔHvH: 56.8 kcal/mol
[1]; pH 7.0, (a) domain
  Tm (Cp, max): 47.1 °C
  ΔH: 187.1 kcal/mol
[1]; pH 7.0, (b) domain
  Tm (Cp, max): 72.9 °C
  ΔH: 136.4 kcal/mol
[1]; pH 7.0, printed in line (b)
  ΔHvH: 27.6 kcal/mol
[1]; pH 7.5
  Tm (Cp, max): 66.2 °C
  ΔH: 499.4 kcal/mol
  ΔHvH: 83.8 kcal/mol
[2]; 0.0M NaCl
  ΔH: 72.9 kcal/mol
  ΔHvH: 136.4 kcal/mol
[2]; 0.0M NaCl, 20 μg/ml
  Tm (Cp, max): 47.1 °C
[2]; 0.25M NaCl
  Tm (Cp, max): 46.1 °C
  ΔH: not present
[2]; 0.50M NaCl
  Tm (Cp, max): 41.6 °C
  ΔH: not present
[2]; 0.75M NaCl
  Tm (Cp, max): 27.5 °C
  ΔH: not present
[2]; 1.0M NaCl
  Tm (Cp, max): no transition observed
[3]; 0.5M GuHCl
  Tm (Cp, max): 50.5 °C
  ΔH: 287.3 kcal/mol
  ΔHvH: 170.9 kcal/mol
[3]; 1.0M GuHCl
  Tm (Cp, max): 60.5 °C
  ΔH: 415.0 kcal/mol
  ΔHvH: 97.1 kcal/mol
[3]; 1.5M GuHCl
  ΔH: 1716.5 kcal/mol
  ΔHvH: 24.3 kcal/mol
[3]; 2.0M GuHCl
  ΔH: 2533.7 kcal/mol
  ΔHvH: 19.2 kcal/mol
[3]; no GuHCl
  ΔH: 499.4 kcal/mol
  ΔHvH: 83.8 kcal/mol
[3]; no GuHCl, 50 mM phosphate
  Tm (Cp, max): 67.2 °C

## O=C(O)c1ccc(NS(=O)(=O)c2ccccc2)cc1 [perturbant of Example 19, phenylsulfonyl-para-aminobenzoic acid]
[4]
  result of complexing with α-interferon at pH 3: precipitation of the complex out of the solution
[4]; pH 7.2
  log 10 Ka (1), Ka=association constant: 2.82
  ΔH (1): −114.587 cal/Mole perturbant
  n (1), # of complexed perturbant molecules: 55.12
[5]; perturbant 5 mg/ml
  Tm of α-interferon: 64.37 °C
  ΔH of α-interferon: 60.151 kcal/mol
[5]; perturbant 10 mg/ml
  Tm of α-interferon: 62.3 °C
  ΔH of α-interferon: 53.161 kcal/mol
[5]; perturbant 25 mg/ml
  Tm of α-interferon: 58.15 °C
  ΔH of α-interferon: 35.393 kcal/mol
[5]; perturbant 100 mg/ml
  Tm of α-interferon: 46.18 °C
  ΔH of α-interferon: 5.4393 kcal/mol
[6]; pH 4.0
  pKd: 7.57
  ΔH: -1.2 kcal/mol
  ΔS: −30.0 eu
[6]; pH 7.5
  pKd: 8.95
  ΔH: +0.8 kcal/mol
  ΔS: +44.0 eu

## O=C(NC(C(=O)O)c1ccccc1)C1CCCCC1 (stereo not drawn) [perturbant of Example 22, cyclohexanoyl phenylglycine]
[4]
  result of complexing with α-interferon at pH 3: negative enthalpy
[4]; pH 7.2
  ΔH (1): 58.5932 cal/Mole perturbant
  n (1), # of complexed perturbant molecules: 121.0354
[4]; pH 7.2, read-out: binding constant (Kd)
  pKd: ~3.00
[4]; pH 7.2, read-out: log 10 Ka (1), Ka=association constant (converted)
  Kd: 2990 µM
[5]; perturbant 5 mg/ml
  Tm of α-interferon: 63.00 °C
  ΔH of α-interferon: 42.299 kcal/mol
[5]; perturbant 10 mg/ml
  Tm of α-interferon: 59.49 °C
  ΔH of α-interferon: 43.058 kcal/mol
[5]; perturbant 25 mg/ml
  Tm of α-interferon: 52.79 °C
  ΔH of α-interferon: 27.237 kcal/mol
[5]; perturbant 100 mg/ml
  ΔH of α-interferon: 0 kcal/mol

## cyclohexanoyl chloride modified L-tyrosine
[6]; pH 4.0
  pKd: 4.11
  ΔH: -1.5 kcal/mol
  ΔS: −5.6 eu
[6]; pH 7.5
  pKd: 4.01
  ΔH: +1.4 kcal/mol
  ΔS: +23.5 eu

## O=C(N[C@@H](Cc1ccccc1)C(=O)O)c1ccccc1O [B, salicyloyl modified L-phenylalanine]
[6]; pH 4.0
  pKd: 8.79
  ΔH: -35.6 kcal/mol
  ΔS: −90.0 eu
[6]; pH 7.5
  pKd: 5.95
  ΔH: +2.1 kcal/mol
  ΔS: +35.0 eu
